The results in this text go back to US7538131B2, “2-{-3-′2-(phenyl)-oxazol-4-ylmethoxymethyl-cyclohexylmethoxy}-propionic acid derivatives useful as peroxisome proliferator-activated receptor (PPAR) ligands for the treatment of hyperlipidemia and diabetes” (Sanofi-Aventis Deutschland GmbH, priority 2004, dated 2009).

Each structure is given as a SMILES string. pEC50: −log10 of the molar value.

In assay [1] the target is T1, human PPARalpha (Homo sapiens, UniProt Q07869).
T1 construct: human PPARalpha receptor (amino acids S167-Y468); expressed in transfected cells; host or cells: HEK cells (stably transfected, pcDNA3, CMV promoter)
T1 sequence (Q07869 167-468): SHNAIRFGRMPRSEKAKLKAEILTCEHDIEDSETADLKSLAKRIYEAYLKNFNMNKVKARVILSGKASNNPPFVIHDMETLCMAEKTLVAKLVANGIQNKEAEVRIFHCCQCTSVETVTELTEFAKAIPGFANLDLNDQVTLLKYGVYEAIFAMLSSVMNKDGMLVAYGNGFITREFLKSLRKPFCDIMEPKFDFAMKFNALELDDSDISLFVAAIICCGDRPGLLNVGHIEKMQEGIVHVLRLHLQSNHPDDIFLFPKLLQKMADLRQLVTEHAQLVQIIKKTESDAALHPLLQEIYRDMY
The assay is described as follows: Cellular PPARalpha assay (stably transfected HEK luciferase reporter cell line). The assay is classed as cell-based. The conditions noted are these: GR-GAL4-humanPPARalpha-LBD, 24 h. As to the method: 1) Determination of EC50 Values of PPAR Agonists in the Cellular PPARalpha Assay
The activity of the novel compounds of the present invention was tested as follows The potency of substances which bind to human PPARalpha and activate it in an agonistic manner is analyzed using a stably transfected HEK cell line (HEK=human embryo kidney) which is referred to here as PPARalpha reporter cell line. It contained two genetic elements, a luciferase reporter element (pdeltaM-GAL4-Luc-Zeo) and a PPARalpha fusion protein (GR-GAL4-humanPPARalpha-LBD) which mediates expression of the luciferase reporter element depending on a PPARalpha ligand. The stably and constitutively expressed fusion protein GR-GAL4-humanPPARalpha-LBD binds in the cell nucleus of the PPARalpha reporter cell line via the GAL4 protein portion to the GAL4 DNA binding motifs 5′-upstream of the luciferase reporter element which was stably integrated in the genome of the cell line. There is only little expression of the luciferase reporter gene without addition of a PPARalpha ligand if fatty acid-depleted fetal calf serum (cs-FCS) is used in the assay. PPARalpha ligands bind and activate the PPARalpha fusion protein and thereby bring about expression of the luciferase reporter gene. The luciferase which is formed can be detected by means of chemiluminescence via an appropriate substrate.
The PPARalpha reporter cell line was prepared in two steps. Firstly, the luciferase reporter element was constructed and stably transfected into HEK cells. For this purpose, five binding sites of the yeast transcription factor GAL4 (in each case 5′-CGGAGTACTGTCCTCCGAG-3′) were cloned in 5′-upstream of a 68 bp-long minimal MMTV promoter (Genbank Accession #V01175). The minimal MMTV promoter section contains a CCAAT box and a TATA element in order to enable efficient transcription by RNA polymerase II. The cloning and sequencing of the GAL4-MMTV construct took place in analogy to the description of Sambrook J. et. al. (Molecular Cloning, Cold Spring Harbor Laboratory Press, 1989). Which is hereby incorporated by reference herein.
The complete Photinus pyralis luciferase gene (Genbank Accession #M15077) was cloned in 3′-downstream of the GAL4-MMTV element. After sequencing, the luciferase reporter element consisting of five GAL4 binding sites, MMTV promoter and luciferase gene was subcloned into a plasmid which confers zeozin resistance in order to obtain the plasmid pdeltaM-GAL4-Luc-Zeo. This vector was transfected into HEK cells in accordance with the statements in Ausubel, F.M. et al. (Current Protocols in Molecular Biology, Vol. 1-3, John Wiley & Sons, Inc., 1995).
In a second step, the PPARalpha fusion protein (GR-GAL4-humanPPARalpha-LBD) was introduced into the stable cell clone described. For this purpose, initially the cDNA coding for the N-terminal 76 amino acids of the glucocorticoid receptor (Genbank Accession # P04150) was linked to the cDNA section coding for amino acids 1-147 of the yeast transcription factor GAL4 (Genbank Accession #P04386). The cDNA of the ligand-binding domain of the human PPARalpha receptor (amino acids S167-Y468; Genbank Accession #S74349) was cloned in at the 3′ end of this GR-GAL4 construct. The fusion construct prepared in this way (GR-GAL4-humanPPARalpha-LBD) was subcloned into the plasmid pcDNA3 (from Invitrogen) in order to enable constitutive expression therein by the cytomegalovirus promoter. This plasmid was linearized with a restriction endonuclease and stably transfected into the previously described cell clone containing the luciferase reporter element. The finished PPARalpha reporter cell line which contains a luciferase reporter element and constitutively expresses the PPARalpha fusion protein (GR-GAL4-humanPPARalpha-LBD) was isolated by selection with zeozin (0.5 mg/ml) and G418 (0.5 mg/ml).
The activity of PPARalpha agonists was determined in a 3-day assay which is described below: […]

Assay [2] concerns the target T2, human PPARgamma (Homo sapiens, UniProt P37231).
T2 construct: human PPARgamma receptor (amino acids 1152-Y475); expressed in transfected cells; host or cells: HEK cells (transiently transfected, pcDNA3-GAL4-humanPPARgammaLBD)
T2 sequence (P37231 182-477 isoform P37231-2 limits assumed): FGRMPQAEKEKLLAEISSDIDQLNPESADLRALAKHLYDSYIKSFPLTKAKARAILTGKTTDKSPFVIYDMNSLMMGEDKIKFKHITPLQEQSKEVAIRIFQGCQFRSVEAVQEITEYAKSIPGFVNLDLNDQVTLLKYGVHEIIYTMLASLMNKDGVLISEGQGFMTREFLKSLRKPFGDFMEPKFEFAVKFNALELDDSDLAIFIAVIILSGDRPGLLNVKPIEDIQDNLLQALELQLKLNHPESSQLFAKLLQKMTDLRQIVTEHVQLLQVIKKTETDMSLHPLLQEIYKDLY
Nature of the assay: Cellular PPARgamma assay (transiently transfected HEK cells, luciferase reporter). The assay is classed as cell-based. The note with it: GAL4-humanPPARgammaLBD, firefly/Renilla luciferase ratio, 48 h. From the text: 4) Determination of EC50 Values of PPAR Agonists in the Cellular PPARgamma Assay
A transient transfection system is employed to determine the cellular PPARgamma activity of PPAR agonists. It is based on the use of a luciferase reporter plasmid (pGL3basic-5xGAL4-TK) and of a PPARgamma expression plasmid (pcDNA3-GAL4-humanPPARgammaLBD). Both plasmids are transiently transfected into human embryonic kidney cells (HEK cells). There is then expression in these cells of the fusion protein GAL4-humanPPARgammaLBD which binds to the GAL4 binding sites of the reporter plasmid. In the presence of a PPARgamma-active ligand, the activated fusion protein GAL4-humanPPARgammaLBD induces expression of the luciferase reporter gene, which can be detected in the form of a chemiluminescence signal after addition of a luciferase substrate. As a difference from the stably transfected PPARalpha reporter cell line, in the cellular PPARgamma assay the two components (luciferase reporter plasmid and PPARgamma expression plasmid) are transiently transfected into HEK cells because stable and permanent expression of the PPARgamma fusion protein is cytotoxic.
The luciferase reporter plasmid pGL3basic-5xGAL4-TK is based on the vector pGL3basic from Promega. The reporter plasmid is prepared by cloning five binding sites of the yeast transcription factor GAL4 (each binding site with the sequence 5′-CTCGGAGGACAGTACTCCG-3′), together with a 160 bp-long thymidine kinase promoter section (Genbank Accession #AF027128) 5′-upstream into pGL3basic. 3′-downstream of the thymidine kinase promoter is the complete luciferase gene from Photinus pyralis (Genbank Accession # Ml 5077), which is already a constituent of the plasmid pGL3basic used. The cloning and sequencing of the reporter plasmid pGL3basic-5xGAL4-TK took place in analogy to the description in Sambrook J. et. al. (Molecular cloning, Cold Spring Harbor Laboratory Press, 1989).
The PPARgamma expression plasmid pcDNA3-GAL4-humanPPARgammaLBD was prepared by first cloning the cDNA coding for amino acids 1-147 of the yeast transcription factor GAL4 (Genbank Accession #P04386) into the plasmid pcDNA3 (from Invitrogen) 3′-downstream of the cytomegalovirus promoter. Subsequently, the cDNA of the ligand-binding domain (LBD) of the human PPARgamma receptor (amino acids […]; Accession #g1480099) 3′-downstream of the GAL4 DNA binding domain was cloned. Cloning and sequencing of the PPARgamma expression plasmid pcDNA3-GAL4-humanPPARgammaLBD again took place in analogy to the description in Sambrook J. et. al. (Molecular cloning, Cold Spring Harbor Laboratory Press, 1989). Besides the luciferase reporter plasmid pGL3basic-5xGAL4-TK and the PPARgamma expression plasmid pcDNA3-GAL4-humanPPARgammaLBD, also used for the cellular PPARgamma assay are the reference plasmid pRL-CMV (from Promega) and the plasmid pBluescript SK(+) from Stratagene. All four plasmids were prepared using a plasmid preparation kit from Qiagen, which ensured a plasmid quality with a minimal endotoxin content, before transfection into HEK cells.
The activity of PPARgamma agonists is determined in a 4-day assay which is described below. Before the transfection, HEK cells were cultivated in DMEM medium (#41965-039, Invitrogen) which was mixed with the following additions: 10% FCS (#16000-044, Invitrogen),1% penicillin-streptomycin solution (#15140-122, Invitrogen) and 2 mM L-glutamine (#25030-024, Invitrogen).
Solution A, a transfection mixture which contains all four plasmids previously described in addition to DMEM medium, was prepared. […]

For `Cc1oc(-c2ccc(-c3ccccc3)cc2)nc1COC[C@H]1CCC[C@@H](COC(C)(C)C(=O)O)C1` [Example 13, 2-[(1R,3S)-3-(2-Biphenyl-4-yl-5-methyloxazol-4-ylmethoxymethyl)cyclohexylmethoxy]-2-methylpropionic acid], the pEC50 was 6.50 in assay [1] and 6.91 in assay [2].
On the same counts, the results for `CC(C)c1oc(-c2ccc3ccccc3c2)nc1COC[C@H]1CCC[C@@H](COC(C)(C)C(=O)O)C1` [Example 14, 2-{(1R,3S)-3-[5-Isopropyl-2-(naphth-2-yl)oxazol-4-ylmethoxymethyl]cyclohexylmethoxy}-2-methylpropionic acid] are 7.73 and 6.90.
Regarding `CC(C)c1oc(-c2ccc3ccccc3c2)nc1COC[C@@H]1CCC[C@H](COC(C)(C)C(=O)O)C1` [Example 11, 2-{(1S,3R)-3-[5-Isopropyl-2-(naphtha-2-yl)oxazol-4-ylmethoxymethyl]cyclohexylmethoxy}-2-methylpropionic acid], the values for the pEC50 in assay [1] and in assay [2] were 7.15 and 5.75, respectively.
Take `CCc1oc(-c2cccc(C(F)(F)F)c2)nc1COC[C@@H]1CCC[C@H](COC(C)(C)C(=O)O)C1` [Example 2, 2-{(1S,3R)-3-[5-Ethyl-2-(3-trifluoromethylphenyl)-oxazol-4-ylmethoxymethyl]cyclohexylmethoxy}-2-methylpropionic acid]: the pEC50 is 7.49 in assay [1] and 6.63 in assay [2].
On the same counts, the results for `CCc1oc(-c2ccc(C)c(C)c2)nc1COC[C@H]1CCC[C@@H](COC(C)(C)C(=O)O)C1` [Example 21, 2-{(1R,3S)-3-[2-(3,4-Dimethylphenyl)-5-ethyloxazol-4-ylmethoxymethyl]cyclohexylmethoxyl}-2-methylpropionic acid] are 8.80 and 6.73.
For the compound `CC(C)c1oc(-c2cccc(C(F)(F)F)c2)nc1COC[C@H]1CCC[C@@H](COC(C)(C)C(=O)O)C1` [Example 16, 2-{(1R,3S)-3-[5-Isopropyl-2-(3-trifluoromethylphenyl)oxazol-4-ylmethoxymethyl]cyclohexylmethoxyl}-2-methylpropionic acid], the negative logarithm of the EC50 (pEC50) was 7.90 in assay [1] and 6.70 in assay [2].
On the same counts, the results for `CC(C)c1oc(-c2ccc(C(C)(C)C)cc2)nc1COC[C@@H]1CCC[C@H](COC(C)(C)C(=O)O)C1` [Example 9, 2-{(1S,3R)-3-[2-(4-tert-butylphenyl)-5-isopropyloxazol-4-ylmethoxymethyl]cyclohexylmethoxy}-2-methylpropionic acid] are 7.31 and 6.31.
In the case of `CC(C)c1oc(-c2ccc(C(C)(C)C)cc2)nc1COC[C@H]1CCC[C@@H](COC(C)(C)C(=O)O)C1` [Example 18, 2-{(1R,3S)-3-[2-(4-tert-butylphenyl)-5-isopropyloxazol-4-ylmethoxymethyl]cyclohexylmethoxy}-2-methylpropionic acid], the pEC50 was 7.69 in assay [1] and 7.42 in assay [2].
For `CC(C)c1oc(-c2cccc(C(F)(F)F)c2)nc1COC[C@@H]1CCC[C@H](COC(C)(C)C(=O)O)C1` [Example 7, 2-{(1S,3R)-3-[5-Isopropyl-2-(3-trifluoromethylphenyl)oxazol-4-ylmethoxymethyl]cyclohexylmethoxyl}-2-methylpropionic acid], in that order: 7.34 and 6.10.
For `CC(C)Cc1ccc(-c2nc(COC[C@H]3CCC[C@@H](COC(C)(C)C(=O)O)C3)c(C(C)C)o2)cc1` [Example 17, 2-{(1R,3S)-3-[2-(4-Isobutylphenyl)-5-isopropyloxazol-4-ylmethoxymethyl]cyclohexylmethoxy}-2-methylpropionic acid], in that order: 7.38 and 6.96.
For `Cc1oc(-c2ccccc2)nc1COCC1CCCC(COC(C)(C)C(=O)O)C1` (stereo not shown) [*], the pEC50 in assay [1] is 7.12; in assay [2], 5.59.
